± gives the uncertainty stated by the source.
Test: xn = mol fraction of the nth substance listed

O=C1O[C@H]([C@@H](O)CO)C(O)=C1O + CC[n+]1ccn(C)c1.O=S(=O)([O-])O + O
viscosity [mPa·s], 100 kPa
Conditions | x1 = 0.0002709, x2 = 0 | x1 = 0.0005412, x2 = 0 | x1 = 0.0008101, x2 = 0 | x1 = 0.001079, x2 = 0 | x1 = 0.001351, x2 = 0 | x1 = 0.001618, x2 = 0 | x1 = 0.00189, x2 = 0
293.15 K | 1.01 ± 0.1 | 1.01 ± 0.1 | 1.02 ± 0.1 | 1.02 ± 0.1 | 1.03 ± 0.1 | 1.03 ± 0.1 | 1.04 ± 0.1
298.15 K | 0.9 ± 0.1 | 0.9 ± 0.1 | 0.91 ± 0.1 | 0.91 ± 0.1 | 0.92 ± 0.1 | 0.92 ± 0.1 | 0.93 ± 0.1
303.15 K | 0.8 ± 0.1 | 0.81 ± 0.1 | 0.81 ± 0.1 | 0.82 ± 0.1 | 0.82 ± 0.1 | 0.83 ± 0.1 | 0.84 ± 0.1
308.15 K | 0.72 ± 0.1 | 0.73 ± 0.1 | 0.73 ± 0.1 | 0.74 ± 0.1 | 0.74 ± 0.1 | 0.75 ± 0.1 | 0.76 ± 0.1
313.15 K | 0.66 ± 0.1 | 0.66 ± 0.1 | 0.67 ± 0.1 | 0.67 ± 0.1 | 0.68 ± 0.1 | 0.68 ± 0.1 | 0.69 ± 0.1
318.15 K | 0.61 ± 0.1 | 0.61 ± 0.1 | 0.62 ± 0.1 | 0.62 ± 0.1 | 0.63 ± 0.1 | 0.63 ± 0.1 | 0.64 ± 0.1

CCCCCC[n+]1ccn(C)c1.N#C[S-] + CN1CCCC1=O
viscosity [mPa·s], 101 kPa
Conditions | x1 = 0.001079 | x1 = 0.001613 | x1 = 0.002068 | x1 = 0.00265 | x1 = 0.003379 | x1 = 0.004077 | x1 = 0.004588 | x1 = 0.005383
288.15 K | 2.143 ± 0.023 | 2.148 ± 0.023 | 2.155 ± 0.023 | 2.162 ± 0.023 | 2.168 ± 0.023 | 2.173 ± 0.023 | 2.182 ± 0.023 | 2.186 ± 0.023
298.15 K | 1.805 ± 0.02 | 1.809 ± 0.02 | 1.82 ± 0.02 | 1.826 ± 0.02 | 1.833 ± 0.02 | 1.841 ± 0.02 | 1.847 ± 0.02 | 1.854 ± 0.02
308.15 K | 1.567 ± 0.018 | 1.576 ± 0.018 | 1.585 ± 0.018 | 1.593 ± 0.018 | 1.6 ± 0.018 | 1.613 ± 0.018 | 1.619 ± 0.018 | 1.624 ± 0.018
318.15 K | 1.337 ± 0.017 | 1.35 ± 0.017 | 1.357 ± 0.017 | 1.37 ± 0.017 | 1.38 ± 0.017 | 1.389 ± 0.017 | 1.397 ± 0.017 | 1.402 ± 0.017

CCCC[P+](CCCC)(CCCC)CCCC.[O-]c1cccnc1 + O=C=O
Conditions | viscosity [mPa·s]
293 K, 101 kPa, x2 = 0.5098 | 90000

CCCCCCCCn1cc[n+](C)c1.N#C[S-] + CN(C)C=O
viscosity [mPa·s], 101 kPa
Conditions | 293.15 K | 303.15 K | 313.15 K | 323.15 K | 333.15 K | 343.15 K | 353.15 K | 363.15 K
x1 = 0.004576 | 0.987 ± 0.025 | 0.872 ± 0.022 | 0.784 ± 0.022 | 0.707 ± 0.02 | 0.65 ± 0.018 | 0.595 ± 0.013 | 0.544 ± 0.015 | 0.504 ± 0.013
x1 = 0.007767 | 1.007 ± 0.023 | 0.891 ± 0.02 | 0.799 ± 0.019 | 0.722 ± 0.017 | 0.658 ± 0.015 | 0.604 ± 0.014 | 0.558 ± 0.013 | 0.515 ± 0.012
x1 = 0.01461 | 1.065 ± 0.024 | 0.948 ± 0.021 | 0.868 ± 0.02 | 0.779 ± 0.018 | 0.705 ± 0.016 | 0.642 ± 0.015 | 0.591 ± 0.014 | 0.543 ± 0.013
x1 = 0.02142 | 1.136 ± 0.026 | 0.994 ± 0.022 | 0.912 ± 0.02 | 0.814 ± 0.018 | 0.728 ± 0.016 | 0.673 ± 0.015 | 0.617 ± 0.014 | 0.563 ± 0.013
x1 = 0.02908 | 1.219 ± 0.027 | 1.057 ± 0.024 | 0.956 ± 0.021 | 0.848 ± 0.019 | 0.764 ± 0.017 | 0.713 ± 0.016 | 0.648 ± 0.015 | 0.598 ± 0.014
x1 = 0.03577 | 1.297 ± 0.029 | 1.134 ± 0.026 | 1.013 ± 0.023 | 0.897 ± 0.021 | 0.808 ± 0.019 | 0.738 ± 0.017 | 0.672 ± 0.015 | 0.618 ± 0.014

COC(=O)OC + CC[n+]1ccn(C)c1C.O=S(=O)([N-]S(=O)(=O)C(F)(F)F)C(F)(F)F
101.3 kPa, x2 = 0
Conditions | viscosity [mPa·s]
288.15 K | 0.668 ± 0.015
293.15 K | 0.628 ± 0.014
298.15 K | 0.588 ± 0.013
303.15 K | 0.553 ± 0.012
308.15 K | 0.524 ± 0.011
313.15 K | 0.498 ± 0.011

Source: the CheMixHub ionic liquid set
